According to ChEMBL document CHEMBL1144133, “Novel highly oxygenated bisabolane sesquiterpenes from Cremanthodium discoideum” (1999):

Legend:
Format in all cases: functional
Bacillus = assay: Antibacterial activity against Bacillus acidilatici MCCB 44102 at 100 ug/ml after 24 hrs by paper-disk method
Pseudomonas aeruginosa = assay: Antibacterial activity against Bacillus aeruginosus MCCB 10104 at 100 ug/ml after 24 hrs by paper-disk method
Bacillus subtilis = assay: Antibacterial activity against Bacillus subtilis MCCB 26501 at 100 ug/ml after 24 hrs by paper-disk method

SMILES | Activity (Bacillus) | Activity (Pseudomonas aeruginosa) | Activity (Bacillus subtilis)
C=C([C@@H](C[C@H](O)C(C)(C)OC)OC(=O)/C(C)=C\C)[C@@H]1C[C@@H](Cl)[C@](C)(O)[C@H](OC(C)=O)[C@@H]1OC(=O)/C(C)=C\C | 10 mm | <9 mm | 13 mm
O=C(N[C@H](CO)[C@H](O)c1ccc([N+](=O)[O-])cc1)C(Cl)Cl [CHLORAMPHENICOL] | 13 mm | 13 mm | 13 mm
